Measurements: patent US20240226343A1, “NEUROPEPTIDE Y1 RECEPTOR (NPY1R) TARGETED THERAPEUTICS AND USES THEREOF” (RADIONETICS ONCOLOGY, INC., priority 2022, published 2024)

target: T1, hNPY1R (Homo sapiens, UniProt P25929); assay: NPY1R binding assay: SK-N-MC membranes, [125I]-Peptide YY (human) competition; settings: data obtained after 120 minutes at rt; SK-N-MC membranes; [125I]-Peptide YY; read-out: hNPY.R binding Ki* ††
T1 construct: SK-N-MC cells endogenously expressing the NPY1R receptor; endogenous in cells; host or cells: SK-N-MC cells (crude membrane fractions)
T1 sequence (P25929 1-384): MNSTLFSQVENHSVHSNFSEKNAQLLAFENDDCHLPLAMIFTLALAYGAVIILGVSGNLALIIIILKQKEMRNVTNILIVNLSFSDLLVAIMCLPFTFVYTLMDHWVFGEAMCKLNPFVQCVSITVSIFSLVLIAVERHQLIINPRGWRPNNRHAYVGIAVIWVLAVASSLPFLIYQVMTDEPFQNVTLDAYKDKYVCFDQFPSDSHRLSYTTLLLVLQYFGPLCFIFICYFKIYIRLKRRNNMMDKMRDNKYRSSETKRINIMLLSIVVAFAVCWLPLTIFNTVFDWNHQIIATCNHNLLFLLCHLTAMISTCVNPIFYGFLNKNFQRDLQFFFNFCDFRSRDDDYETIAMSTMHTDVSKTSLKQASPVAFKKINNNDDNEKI

Ki [nM] | Compound
< 10 | CCC(=O)NCCNC(=O)/N=C(/N)NCCC[C@@H](NC(=O)C(c1ccccc1)c1cccc(OCCCCNC(=O)[C@@H](Cc2ccc(-c3ccccc3)cc2)NC(=O)CCNC(=O)CN2CCN(CC(=O)O)CCN(CC(=O)O)CCN(CC(=O)O)CC2)c1)C(=O)NCc1ccc(O)cc1 (stereo partly drawn) [Compound 149, 2,2′,2″-(10-(2-((3-(((2R)-3-([1,1′-biphenyl]-4-yl)-1-((4-(3-((4R,Z)-9-amino-4-((4-hydroxybenzyl)carbamoyl)-2,11,16-trioxo-1-phenyl-3,8,10,12,15-pentaazaoctadec-9-en-1-yl)phenoxy)butyl)amino)-1-oxopropan-2-yl)amino)-3-oxopropyl)amino)-2-oxoethyl)-1,4,7,10-tetraazacyclododecane-1,4,7-triyl)triacetic acid]
< 10 | CCC(=O)NCCNC(=O)/N=C(/N)NCCC[C@@H](NC(=O)C(c1ccccc1)c1cccc(OCCCCNC(=O)[C@@H](Cc2ccc3ccccc3c2)NC(=O)CCNC(=O)CN2CCN(CC(=O)O)CCN(CC(=O)O)CCN(CC(=O)O)CC2)c1)C(=O)NCc1ccc(O)cc1 (stereo partly drawn) [Compound 150, 2,2′,2″-(10-(2-((3-(((2R)-1-((4-(3-((4R,Z)-9-amino-4-((4-hydroxybenzyl)carbamoyl)-2,11,16-trioxo-1-phenyl-3,8,10,12,15-pentaazaoctadec-9-en-1-yl)phenoxy)butyl)amino)-3-(naphthalen-2-yl)-1-oxopropan-2-yl)amino)-3-oxopropyl)amino)-2-oxoethyl)-1,4,7,10-tetraazacyclododecane-1,4,7-triyl)triacetic acid]
< 10 | CCC(=O)NCCNC(=O)/N=C(/N)NCCC[C@@H](NC(=O)C(c1ccccc1)c1ccc(NCCCNC(=O)c2ccc(C(=O)NCCCCNC(=O)CN3CCN(CC(=O)O)CCN(CC(=O)O)CCN(CC(=O)O)CC3)cc2)cc1)C(=O)NCc1ccc(O)cc1 (stereo partly drawn) [Compound 157, 2,2′,2″-(10-(2-((4-(4-((3-((4-((4R,Z)-9-amino-4-((4-hydroxybenzyl)carbamoyl)-2,11,16-trioxo-1-phenyl-3,8,10,12,15-pentaazaoctadec-9-en-1-yl)phenyl)amino)propyl)carbamoyl)benzamido)butyl)amino)-2-oxoethyl)-1,4,7,10-tetraazacyclododecane-1,4,7-triyl)triacetic acid]
< 10 | CCC(=O)NCCNC(=O)/N=C(/N)NCCC[C@@H](NC(=O)C(c1ccccc1)c1ccc(NCCCNC(=O)[C@H]2CC[C@H](CNC(=O)CN3CCN(CC(=O)O)CCN(CC(=O)O)CCN(CC(=O)O)CC3)CC2)cc1)C(=O)NCc1ccc(O)cc1 (stereo partly drawn) [Compound 158, 2,2′,2″-(10-(2-((((1R,4r)-4-((3-((4-((4R,Z)-9-amino-4-((4-hydroxybenzyl)carbamoyl)-2,11,16-trioxo-1-phenyl-3,8,10,12,15-pentaazaoctadec-9-en-1-yl)phenyl)amino)propyl)carbamoyl)cyclohexyl)methyl)amino)-2-oxoethyl)-1,4,7,10-tetraazacyclododecane-1,4,7-triyl)triacetic acid]
